Experimental data taken from patent US4720503A, “N-substituted fused-heterocyclic carboxamide derivatives as dual cyclooxygenase and lipoxygenase inhibitors” (Merck & Co., Inc., priority 1985, dated 1988).

Key:
cyclooxygenase = cyclooxygenase (Homo sapiens, UniProt P23219); experiment: cyclooxygenase enzyme assay, % inhibition (CO); assay type: biochemical; settings: for inhibition at 0.5 µg/mL: Dosage 0.5 μg/ml; for inhibition at 1 µg/mL: Dosage 1.0 μg/ml; for inhibition at 5 µg/mL: Dosage 5.0 μg/ml; for inhibition at 0.1 µg/mL: Dosage 0.1 μg/ml
Chain of cyclooxygenase (P23219 24-599): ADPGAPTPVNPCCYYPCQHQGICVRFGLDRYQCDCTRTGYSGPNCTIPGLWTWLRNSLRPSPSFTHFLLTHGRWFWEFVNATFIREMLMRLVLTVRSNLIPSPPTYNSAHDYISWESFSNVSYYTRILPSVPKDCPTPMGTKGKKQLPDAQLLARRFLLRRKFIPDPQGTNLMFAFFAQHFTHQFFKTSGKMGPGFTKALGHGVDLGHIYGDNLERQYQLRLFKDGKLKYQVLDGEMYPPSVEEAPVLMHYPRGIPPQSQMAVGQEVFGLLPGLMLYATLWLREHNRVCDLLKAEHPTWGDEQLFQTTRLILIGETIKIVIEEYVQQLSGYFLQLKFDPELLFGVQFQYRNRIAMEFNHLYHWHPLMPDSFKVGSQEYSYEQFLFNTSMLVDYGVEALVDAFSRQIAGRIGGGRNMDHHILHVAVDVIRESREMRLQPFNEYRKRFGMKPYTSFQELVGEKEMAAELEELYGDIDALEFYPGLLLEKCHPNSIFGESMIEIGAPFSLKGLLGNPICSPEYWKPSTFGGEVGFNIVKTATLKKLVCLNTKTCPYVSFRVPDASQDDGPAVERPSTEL

5-lipoxygenase = molecular target: T1, 5-lipoxygenase (Homo sapiens, UniProt P09917); experiment: 5-lipoxygenase enzyme assay, % inhibition (5-LO); assay type: biochemical; settings: for inhibition at 1 µg/mL: Dosage 1.0 μg/ml
T1 sequence (P09917 1-674): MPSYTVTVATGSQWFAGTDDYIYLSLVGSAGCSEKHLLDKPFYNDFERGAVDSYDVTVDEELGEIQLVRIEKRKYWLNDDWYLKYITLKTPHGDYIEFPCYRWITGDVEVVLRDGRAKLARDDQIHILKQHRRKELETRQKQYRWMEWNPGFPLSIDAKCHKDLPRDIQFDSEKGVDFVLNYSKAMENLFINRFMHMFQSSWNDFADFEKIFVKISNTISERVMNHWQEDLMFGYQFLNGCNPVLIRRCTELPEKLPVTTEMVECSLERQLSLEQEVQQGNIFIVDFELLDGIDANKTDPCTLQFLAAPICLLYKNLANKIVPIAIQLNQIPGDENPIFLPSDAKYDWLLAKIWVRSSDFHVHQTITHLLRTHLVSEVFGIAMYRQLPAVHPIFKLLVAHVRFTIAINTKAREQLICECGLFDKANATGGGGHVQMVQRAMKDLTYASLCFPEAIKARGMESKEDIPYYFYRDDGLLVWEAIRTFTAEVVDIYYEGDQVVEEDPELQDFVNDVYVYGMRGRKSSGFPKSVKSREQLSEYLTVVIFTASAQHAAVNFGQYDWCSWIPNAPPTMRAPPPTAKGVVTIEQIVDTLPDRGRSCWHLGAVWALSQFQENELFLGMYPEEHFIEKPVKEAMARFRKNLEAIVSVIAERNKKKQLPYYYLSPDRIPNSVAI

[1] = solubility remark (footnote of table 9); assay type: physicochemical; settings: footnote to 5-LO value at 100 μg/ml
gastric acid secretion = settings: S. Szabo et al., Experimentia, 38, 254, 1982; cited from earlier work
gastric cytoprotection = settings: S. Szabo et al., Experimentia, 38, 254, 1982; cited from earlier work

COC(=O)c1cc2oc(C(=O)NC=C(c3ccccc3)c3ccccc3)c(O)c2s1 [O phenyl phenyl CO2 CH3, N-(2,2-Diphenylethenyl)-5-carbomethoxy-3-hydroxythieno[3,2-b]furan-2-carboxamide]
inhibition at 0.5 µg/mL (cyclooxygenase): 95% | inhibition at 1 µg/mL (cyclooxygenase): 98% | inhibition at 2 µg/mL (cyclooxygenase; Dosage 2.0 μg/ml): 98% | inhibition at 5 µg/mL (cyclooxygenase): 100% | inhibition at 0.5 µg/mL (5-lipoxygenase; Dosage 0.5 μg/ml): 30% | inhibition at 5 µg/mL (5-lipoxygenase; Dosage 5.0 μg/ml): 34%

Cc1ccc(C(=CNC(=O)c2sc3ccsc3c2O)c2ccco2)cc1 [S p-tolyl 2-furyl H, N-[2-(2-Furyl)-2-(4-methylphenyl)ethenyl]-3-hydroxythieno[3,2-b]thiophene-2-carboxamide]
inhibition at 0.1 µg/mL (cyclooxygenase): 49% | inhibition at 1 µg/mL (cyclooxygenase): 97% | inhibition at 5 µg/mL (cyclooxygenase): 98% | inhibition at 10 µg/mL (cyclooxygenase; Dosage 10.0 μg/ml): 100% | inhibition at 0.1 µg/mL (5-lipoxygenase; Dosage 0.1 μg/ml): 11% | inhibition at 1 µg/mL (5-lipoxygenase): 14% | inhibition at 10 µg/mL (5-lipoxygenase; Dosage 10.0 μg/ml): 66%

COC(=O)c1cc2sc(C(=O)NC=C(c3ccccc3)c3ccccc3)c(O)c2s1 [S phenyl phenyl CO2 CH3, 5-Carbomethoxy-N-(2,2-diphenylethenyl)-3-hydroxythieno[3,2-b]thiophene-2-carboxamide]
inhibition at 0.01 µg/mL (cyclooxygenase; Dosage 0.01 μg/ml): 9% | inhibition at 0.05 µg/mL (cyclooxygenase; Dosage 0.05 μg/ml): 33% | inhibition at 0.5 µg/mL (cyclooxygenase): 80% | inhibition at 5 µg/mL (cyclooxygenase): 100% | inhibition at 100 µg/mL (cyclooxygenase; Dosage 100 μg/ml): 100% | inhibition at 100 µg/mL (5-lipoxygenase): 12% | solubility (footnote) [1]: very insoluble

O=C(NC=C(c1ccccc1)c1ccccc1)c1sc2ccsc2c1O [S phenyl phenyl H, N-(2,2-diphenylethenyl)-3-hydroxythieno[3,2-b]thiophene-2-carboxamide]
inhibition at 0.1 µg/mL (cyclooxygenase): 39% | inhibition at 0.48 µg/mL (cyclooxygenase; Dosage 0.48 μg/ml): 99% | inhibition at 1 µg/mL (cyclooxygenase): 100% | inhibition at 2.4 µg/mL (cyclooxygenase; Dosage 2.40 μg/ml): 100% | inhibition at 1 µg/mL (5-lipoxygenase): 34%

CCCCC[C@H](O)/C=C/[C@@H]1[C@@H](C/C=C\CCCC(=O)O)[C@H](O)C[C@H]1O [protaglandin F2B]
inhibition of gastric acid secretion (gastric acid secretion): does not inhibit gastric acid secretion | gastric cytoprotection (gastric cytoprotection): does induce gastric cytoprotection
